Source: PubChem BioAssay AID2060893 (Molecular Pharmacology Branch, DTP, NCI, 2025)
One block for each molecule: values may come before it.

Tested on: K86415-001-R-J1-PDC complex spheroids, viability
Assay: Anticancer human tumor K86415-001-R-J1-PDC patient-derived lung adenocarcinoma cell line growth inhibition [RAS]
Conditions: for IC50: curve of first compound; for viability, T/C: stronger effect = lower value
Method in brief: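 Multi-cell-type spheroids: tumor cells plus HUVEC endothelial cells and mesenchymal stem cells. RAS-pathway inhibitors were combined with targeted agents, each dosed in half-log steps down from clinical Cmax, or from 10 microM when Cmax was unknown.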

[1] = second compound 0.000949 µM, first compound 0.0316 µM
[2] = second compound 0.000949 µM, first compound 0.1 µM
[3] = second compound 0.000949 µM, first compound 0.316 µM
[4] = second compound 0.000949 µM, first compound 1 µM
[5] = second compound 0.003 µM, first compound 0.0316 µM
[6] = second compound 0.003 µM, first compound 0.1 µM
[7] = second compound 0.003 µM, first compound 0.316 µM
[8] = second compound 0.003 µM, first compound 1 µM
[9] = second compound 0.00949 µM, first compound 0.0316 µM
[10] = second compound 0.00949 µM, first compound 0.1 µM
[11] = second compound 0.00949 µM, first compound 0.316 µM
[12] = second compound 0.00949 µM, first compound 1 µM
[13] = second compound 0.03 µM, first compound 0.0316 µM
[14] = second compound 0.03 µM, first compound 0.1 µM
[15] = second compound 0.03 µM, first compound 0.316 µM
[16] = second compound 0.03 µM, first compound 1 µM
[17] = second compound 0.0949 µM, first compound 0.0316 µM
[18] = second compound 0.0949 µM, first compound 0.1 µM
[19] = second compound 0.0949 µM, first compound 0.316 µM
[20] = second compound 0.0949 µM, first compound 1 µM
[21] = second compound 0.3 µM, first compound 0.0316 µM
[22] = second compound 0.3 µM, first compound 0.1 µM
[23] = second compound 0.3 µM, first compound 0.316 µM
[24] = second compound 0.3 µM, first compound 1 µM
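Note: spheroids exposed to agents for seven days before readout.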

- IC50 (second compound 0.000949 µM): < 31.6 nM
- IC50 (second compound 0.003 µM): < 31.6 nM
- IC50 (second compound 0.00949 µM): < 31.6 nM
- IC50 (second compound 0.03 µM): < 31.6 nM
- IC50 (second compound 0.0949 µM): < 31.6 nM
- IC50 (second compound 0.3 µM): < 31.6 nM
SMILES: CC(=O)OC12COC1CC(O)C1(C)C(=O)C(O)C3=C(C)C(OC(=O)C(O)C(NC(=O)OC(C)(C)C)c4ccccc4)CC(O)(C(OC(=O)c4ccccc4)C21)C3(C)C (stereo unspecified) + CCn1c(-c2cc(N3CCN(C)CC3)cnc2C(C)OC)c2c3cc(ccc31)-c1csc(n1)CC(NC(=O)C1CC1C)C(=O)N1CCCC(N1)C(=O)OCC(C)(C)C2
- viability, T/C [1]: 26.9%
- viability, T/C [2]: 21.5%
- viability, T/C [3]: 17.2%
- viability, T/C [4]: 22.7%
- viability, T/C (second compound 0.000949 µM, first compound 3.16 µM): 25.3%
- viability, T/C (second compound 0.000949 µM, first compound 10 µM): 19%
- viability, T/C [5]: 19.2%
- viability, T/C [6]: 15.6%
- viability, T/C [7]: 15.1%
- viability, T/C [8]: 16.7%
- viability, T/C (second compound 0.003 µM, first compound 3.16 µM): 15%
- viability, T/C (second compound 0.003 µM, first compound 10 µM): 12.8%
- viability, T/C [9]: 9.53%
- viability, T/C [10]: 7.3%
- viability, T/C [11]: 7.91%
- viability, T/C [12]: 7.79%
- viability, T/C (second compound 0.00949 µM, first compound 3.16 µM): 5.97%
- viability, T/C (second compound 0.00949 µM, first compound 10 µM): 6.51%
- viability, T/C [13]: 5.56%
- viability, T/C [14]: 5.63%
- viability, T/C [15]: 4.4%
- viability, T/C [16]: 3.98%
- viability, T/C (second compound 0.03 µM, first compound 3.16 µM): 2.48%
- viability, T/C (second compound 0.03 µM, first compound 10 µM): 2.81%
- viability, T/C [17]: 3.04%
- viability, T/C [18]: 2.69%
- viability, T/C [19]: 2.48%
- viability, T/C [20]: 1.97%
- viability, T/C (second compound 0.0949 µM, first compound 3.16 µM): 2.21%
- viability, T/C (second compound 0.0949 µM, first compound 10 µM): 2.4%
- viability, T/C [21]: 2.05%
- viability, T/C [22]: 2.39%
- viability, T/C [23]: 1.97%
- viability, T/C [24]: 2.03%
- viability, T/C (second compound 0.3 µM, first compound 3.16 µM): 2.06%
- viability, T/C (second compound 0.3 µM, first compound 10 µM): 1.73%

- IC50 (second compound 0.000949 µM): < 0.949 nM
- IC50 (second compound 0.003 µM): < 0.949 nM
- IC50 (second compound 0.00949 µM): < 0.949 nM
- IC50 (second compound 0.03 µM): < 0.949 nM
- IC50 (second compound 0.0949 µM): < 0.949 nM
- IC50 (second compound 0.3 µM): < 0.949 nM
SMILES: CCc1c2c(nc3ccc(O)cc13)-c1cc3c(c(=O)n1C2)COC(=O)[C@]3(O)CC + CCn1c(-c2cc(N3CCN(C)CC3)cnc2C(C)OC)c2c3cc(ccc31)-c1csc(n1)CC(NC(=O)C1CC1C)C(=O)N1CCCC(N1)C(=O)OCC(C)(C)C2
- viability, T/C (second compound 0.000949 µM, first compound 0.000949 µM): 43.2%
- viability, T/C (second compound 0.000949 µM, first compound 0.003 µM): 23.9%
- viability, T/C (second compound 0.000949 µM, first compound 0.00949 µM): 12.9%
- viability, T/C (second compound 0.000949 µM, first compound 0.03 µM): 16.1%
- viability, T/C (second compound 0.000949 µM, first compound 0.0949 µM): 11.6%
- viability, T/C (second compound 0.000949 µM, first compound 0.3 µM): 4.09%
- viability, T/C (second compound 0.003 µM, first compound 0.000949 µM): 22%
- viability, T/C (second compound 0.003 µM, first compound 0.003 µM): 13.5%
- viability, T/C (second compound 0.003 µM, first compound 0.00949 µM): 12.4%
- viability, T/C (second compound 0.003 µM, first compound 0.03 µM): 13.3%
- viability, T/C (second compound 0.003 µM, first compound 0.0949 µM): 10.2%
- viability, T/C (second compound 0.003 µM, first compound 0.3 µM): 3.14%
- viability, T/C (second compound 0.00949 µM, first compound 0.000949 µM): 9.02%
- viability, T/C (second compound 0.00949 µM, first compound 0.003 µM): 7.98%
- viability, T/C (second compound 0.00949 µM, first compound 0.00949 µM): 8.68%
- viability, T/C (second compound 0.00949 µM, first compound 0.03 µM): 8.25%
- viability, T/C (second compound 0.00949 µM, first compound 0.0949 µM): 5.09%
- viability, T/C (second compound 0.00949 µM, first compound 0.3 µM): 2.46%
- viability, T/C (second compound 0.03 µM, first compound 0.000949 µM): 5.24%
- viability, T/C (second compound 0.03 µM, first compound 0.003 µM): 5.47%
- viability, T/C (second compound 0.03 µM, first compound 0.00949 µM): 3.66%
- viability, T/C (second compound 0.03 µM, first compound 0.03 µM): 3.44%
- viability, T/C (second compound 0.03 µM, first compound 0.0949 µM): 2.88%
- viability, T/C (second compound 0.03 µM, first compound 0.3 µM): 1.87%
- viability, T/C (second compound 0.0949 µM, first compound 0.000949 µM): 3.46%
- viability, T/C (second compound 0.0949 µM, first compound 0.003 µM): 3.37%
- viability, T/C (second compound 0.0949 µM, first compound 0.00949 µM): 2.84%
- viability, T/C (second compound 0.0949 µM, first compound 0.03 µM): 2.41%
- viability, T/C (second compound 0.0949 µM, first compound 0.0949 µM): 1.76%
- viability, T/C (second compound 0.0949 µM, first compound 0.3 µM): 0.94%
- viability, T/C (second compound 0.3 µM, first compound 0.000949 µM): 2.47%
- viability, T/C (second compound 0.3 µM, first compound 0.003 µM): 2.36%
- viability, T/C (second compound 0.3 µM, first compound 0.00949 µM): 2.47%
- viability, T/C (second compound 0.3 µM, first compound 0.03 µM): 2.01%
- viability, T/C (second compound 0.3 µM, first compound 0.0949 µM): 2.07%
- viability, T/C (second compound 0.3 µM, first compound 0.3 µM): 0.89%

- IC50 (second compound 0.000949 µM): < 3.16 nM
- IC50 (second compound 0.003 µM): < 3.16 nM
- IC50 (second compound 0.00949 µM): < 3.16 nM
- IC50 (second compound 0.03 µM): < 3.16 nM
- IC50 (second compound 0.0949 µM): < 3.16 nM
- IC50 (second compound 0.3 µM): < 3.16 nM
SMILES: Nc1ccn(C2OC(CO)C(O)C2(F)F)c(=O)n1 (stereo unspecified) + CCn1c(-c2cc(N3CCN(C)CC3)cnc2C(C)OC)c2c3cc(ccc31)-c1csc(n1)CC(NC(=O)C1CC1C)C(=O)N1CCCC(N1)C(=O)OCC(C)(C)C2
- viability, T/C (second compound 0.000949 µM, first compound 0.00316 µM): 47%
- viability, T/C (second compound 0.000949 µM, first compound 0.01 µM): 45.2%
- viability, T/C [1]: 34%
- viability, T/C [2]: 26.3%
- viability, T/C [3]: 21.8%
- viability, T/C [4]: 16.3%
- viability, T/C (second compound 0.003 µM, first compound 0.00316 µM): 24.2%
- viability, T/C (second compound 0.003 µM, first compound 0.01 µM): 19.4%
- viability, T/C [5]: 18.2%
- viability, T/C [6]: 19.3%
- viability, T/C [7]: 15.4%
- viability, T/C [8]: 11.8%
- viability, T/C (second compound 0.00949 µM, first compound 0.00316 µM): 11.9%
- viability, T/C (second compound 0.00949 µM, first compound 0.01 µM): 8.79%
- viability, T/C [9]: 10.1%
- viability, T/C [10]: 13.8%
- viability, T/C [11]: 9.53%
- viability, T/C [12]: 9.18%
- viability, T/C (second compound 0.03 µM, first compound 0.00316 µM): 6.18%
- viability, T/C (second compound 0.03 µM, first compound 0.01 µM): 6.2%
- viability, T/C [13]: 6.46%
- viability, T/C [14]: 5.05%
- viability, T/C [15]: 3.47%
- viability, T/C [16]: 4.42%
- viability, T/C (second compound 0.0949 µM, first compound 0.00316 µM): 4.43%
- viability, T/C (second compound 0.0949 µM, first compound 0.01 µM): 4.18%
- viability, T/C [17]: 4.08%
- viability, T/C [18]: 3.58%
- viability, T/C [19]: 2.79%
- viability, T/C [20]: 2.41%
- viability, T/C (second compound 0.3 µM, first compound 0.00316 µM): 3.51%
- viability, T/C (second compound 0.3 µM, first compound 0.01 µM): 3.18%
- viability, T/C [21]: 3.3%
- viability, T/C [22]: 2.52%
- viability, T/C [23]: 3.52%
- viability, T/C [24]: 2.26%
